# Measured values: US9637453B2, “3-spirocyclic-6-hydroxamic acid tetralins as HDAC inhibitors” (Forma Therapeutics, Inc., priority 2015, dated 2017)
# Tests used:
# [1] = target: T1, Full length human recombinant HDAC6 (Homo sapiens, UniProt Q9UBN7); assay: In vitro histone deacetylase assay, enzymatic HDAC6 (electrophoretic mobility shift assay); type: biochemical; conditions: 1 nM HDAC6; 2 μM peptide substrate FAM-RHKK(Ac)—NH2; 25° C.; 12 concentrations; read-out: HDAC6 Activity Range (IC50)
# T1 construct: Full length human recombinant HDAC6 and HDAC11 proteins were expressed in baculoviral system
# T1 sequence (Q9UBN7 1-1215): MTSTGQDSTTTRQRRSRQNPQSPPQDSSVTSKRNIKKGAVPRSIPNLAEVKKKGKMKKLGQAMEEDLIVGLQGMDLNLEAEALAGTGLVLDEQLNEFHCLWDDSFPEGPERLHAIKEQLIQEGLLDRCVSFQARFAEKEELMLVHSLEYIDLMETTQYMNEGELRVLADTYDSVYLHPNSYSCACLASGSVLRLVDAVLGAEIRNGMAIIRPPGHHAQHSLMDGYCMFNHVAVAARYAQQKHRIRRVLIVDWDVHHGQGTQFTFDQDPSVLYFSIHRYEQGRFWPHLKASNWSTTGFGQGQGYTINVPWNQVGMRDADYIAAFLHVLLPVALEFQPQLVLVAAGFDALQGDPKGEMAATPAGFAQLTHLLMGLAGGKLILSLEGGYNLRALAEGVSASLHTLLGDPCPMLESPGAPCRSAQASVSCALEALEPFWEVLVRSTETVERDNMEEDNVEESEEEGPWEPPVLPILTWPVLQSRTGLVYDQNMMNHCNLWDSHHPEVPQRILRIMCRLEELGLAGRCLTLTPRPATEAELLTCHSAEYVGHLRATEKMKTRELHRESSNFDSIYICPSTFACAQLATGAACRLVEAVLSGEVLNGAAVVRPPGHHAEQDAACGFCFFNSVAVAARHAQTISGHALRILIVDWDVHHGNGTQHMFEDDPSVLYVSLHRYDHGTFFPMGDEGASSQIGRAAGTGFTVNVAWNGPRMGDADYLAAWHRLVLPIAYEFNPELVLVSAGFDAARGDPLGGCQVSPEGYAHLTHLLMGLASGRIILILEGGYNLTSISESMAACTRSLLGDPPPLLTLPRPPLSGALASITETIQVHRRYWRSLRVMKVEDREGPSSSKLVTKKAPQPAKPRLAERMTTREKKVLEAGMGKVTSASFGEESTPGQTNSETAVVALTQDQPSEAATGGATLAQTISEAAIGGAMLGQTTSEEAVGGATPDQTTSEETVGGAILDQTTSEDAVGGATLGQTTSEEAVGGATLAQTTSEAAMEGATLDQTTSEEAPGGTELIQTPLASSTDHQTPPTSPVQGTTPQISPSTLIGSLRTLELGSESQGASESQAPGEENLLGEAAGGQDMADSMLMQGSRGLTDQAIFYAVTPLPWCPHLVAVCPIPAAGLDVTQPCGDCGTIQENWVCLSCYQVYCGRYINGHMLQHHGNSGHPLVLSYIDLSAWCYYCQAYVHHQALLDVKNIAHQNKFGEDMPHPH
# Protocol: (§1) The enzymatic HDAC6 and HDAC11 assays were performed using electrophoretic mobility shift assay. Full length human recombinant HDAC6 and HDAC11 proteins were expressed in baculoviral system and purified by affinity chromatography. The enzymatic reactions were assembled in 384 well plates in a total volume of 25 μL in a reaction buffer composing: 100 mM HEPES, pH 7.5, 25 mM KCl, 0.1% bovine serum albumin, 0.01% Triton X-100, 1% DMSO (from compounds) 2 μM of the fluorescently labeled peptide substrate and enzyme. The enzymes were added at a final concentration of 1 nM for HDAC6, and 10 nM for HDAC11. The peptide substrate FAM-RHKK(Ac)—NH2 was used for HDAC6, and FAM-RHKK(tri-fluor-Ac)—NH2 for HDAC11. The compounds were tested at 12 concentrations spaced by 3× dilution intervals. Negative control samples (0%-inhibition in the absence of inhibitor) and positive control samples (100%-inhibition) were assembled in replicates of four in each assay plate. The reactions were incubated at 25° C. and quenched by the addition of 45 μL of termination buffer (100 mM HEPES, pH 7.5, 0.01% Triton X-100, 0.05% SDS).
# (§2) The terminated assay plates were analyzed on LabChip® 3000 microfluidic electrophoresis instrument (Perkin Elmer/Caliper Life Sciences). The fluorescence intensity of the electrophoretically separated de-acetylated product and substrate peptide was measured. Activity in each sample was determined as the product to sum ratio (PSR): P/(S+P), where P is the peak height of the product peptide and S is the peak height of the substrate peptide. Percent inhibition (Pinh) is determined using following equation:
# (§3) Pinh=(PSR0%−PSRinh)/(PSR0%−PSR100%)*100, where PSRinh is the product sum ratio in the presence of inhibitor, PSR0% is the average product sum ration in the absence of inhibitor and PSR100% is the average product sum ratio in 100%-inhibition control samples. The IC50 values of inhibitors were determined by fitting the %-inhibition curves with 4 parameter dose-response model using XLfit 4 software.
# (§4) As set forth in Table-26 and Table-27, below, IC5o values are defined as follows: IC50≦0.1 μM (+++); IC50>0.1 μM and ≦0.5 μM (++); IC50>0.5 μM (+).
# [2] = target: T2, Full length human recombinant HDAC11 (Homo sapiens, UniProt Q96DB2); assay: In vitro histone deacetylase assay, enzymatic HDAC11 (electrophoretic mobility shift assay); type: biochemical; conditions: 10 nM HDAC11; 2 μM peptide substrate FAM-RHKK(tri-fluor-Ac)—NH2; 25° C.; 12 concentrations; read-out: HDAC11 Activity Range (IC50)
# T2 construct: Full length human recombinant HDAC6 and HDAC11 proteins were expressed in baculoviral system
# T2 sequence (Q96DB2 1-347): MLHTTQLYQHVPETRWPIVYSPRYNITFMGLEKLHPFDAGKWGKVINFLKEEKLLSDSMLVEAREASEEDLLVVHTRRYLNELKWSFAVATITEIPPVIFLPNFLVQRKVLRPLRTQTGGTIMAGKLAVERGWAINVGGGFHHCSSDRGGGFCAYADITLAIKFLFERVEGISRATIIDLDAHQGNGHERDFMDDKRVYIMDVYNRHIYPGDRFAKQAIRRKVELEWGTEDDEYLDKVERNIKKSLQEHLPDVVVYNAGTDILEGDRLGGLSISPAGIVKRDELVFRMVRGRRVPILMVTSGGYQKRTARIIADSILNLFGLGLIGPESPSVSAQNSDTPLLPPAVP
# Protocol: as §1, §2, §3, §4
SMILES,IC50 [1] [nM],IC50 [2] [nM]
"O=C(NO)c1ccc2c(c1)C[C@@]1(CC2)CCN(Cc2ccc(Cl)cc2)C1=O [Compound I-37, (S)-1′-(4-chlorobenzyl)-N-hydroxy-2′-oxo-3,4-dihydro-1H-spiro[naphthalene-2,3′-pyrrolidine]-7-carboxamide]",≤ 100,≤ 100
"O=C(NO)c1ccc2c(c1)C[C@]1(CC2)CCN(Cc2ccc(Cl)cc2)C1=O [Compound I-38, (R)-1′-(4-chlorobenzyl)-N-hydroxy-2′-oxo-3,4-dihydro-1H-spiro[naphthalene-2,3′-pyrrolidine]-7-carboxamide]",≤ 100,> 500
"O=C(NO)c1ccc2c(c1)C[C@@]1(CC2)CCN(Cc2ccc(Cl)cn2)C1=O [Compound I-39, (S)-1′-((5-chloropyridin-2-yl)methyl)-N-hydroxy-2′-oxo-3,4-dihydro-1H-spiro[naphthalene-2,3′-pyrrolidine]-7-carboxamide]",≤ 100,> 500
"O=C(NO)c1ccc2c(c1)C[C@]1(CC2)CCN(Cc2ccc(Cl)cn2)C1=O [Compound I-40, (R)-1′-((5-chloropyridin-2-yl)methyl)-N-hydroxy-2′-oxo-3,4-dihydro-1H-spiro[naphthalene-2,3′-pyrrolidine]-7-carboxamide]",≤ 100,≤ 100
"O=C(NO)c1ccc2c(c1)C[C@@]1(CC2)CCN(Cc2ccc(F)cc2)C1=O [Compound I-41, (S)-1′-(4-fluorobenzyl)-N-hydroxy-2′-oxo-3,4-dihydro-1H-spiro[naphthalene-2,3′-pyrrolidine]-7-carboxamide]",≤ 100,> 500
"O=C(NO)c1ccc2c(c1)C[C@]1(CC2)CCN(Cc2ccc(F)cc2)C1=O [Compound I-42, (R)-1′-(4-fluorobenzyl)-N-hydroxy-2′-oxo-3,4-dihydro-1H-spiro[naphthalene-2,3′-pyrrolidine]-7-carboxamide]",≤ 100,≤ 100
"O=C(NO)c1ccc2c(c1)C[C@]1(CC2)CCN(c2ccccn2)C1=O [Compound I-43, (R)—N-hydroxy-2′-oxo-1′-(pyridin-2-yl)-3,4-dihydro-1H-spiro[naphthalene-2,3′-pyrrolidine]-7-carboxamide]",≤ 100,> 500
"O=C(NO)c1ccc2c(c1)C[C@@]1(CC2)CCN(c2ccccn2)C1=O [Compound I-44, (S)—N-hydroxy-2′-oxo-1′-(pyridin-2-yl)-3,4-dihydro-1H-spiro[naphthalene-2,3′-pyrrolidine]-7-carboxamide]",≤ 100,> 500

# More lines, now with the values ahead:
IC50 [1] [nM],IC50 [2] [nM],SMILES
≤ 100,> 500,"COCCn1c(CN2CC[C@@]3(CCc4ccc(C(=O)NO)cc4C3)C2=O)nc2ccccc21 [Compound I-45, (S)—N-hydroxy-1′-((1-(2-methoxyethyl)-1H-benzo[d]imidazol-2-yl)methyl)-2′-oxo-3,4-dihydro-1H-spiro[naphthalene-2,3′-pyrrolidine]-7-carboxamide]"
≤ 100,100 to 500,"COCCn1c(CN2CC[C@]3(CCc4ccc(C(=O)NO)cc4C3)C2=O)nc2ccccc21 [Compound I-46, (R)—N-hydroxy-1′-((1-(2-methoxyethyl)-1H-benzo[d]imidazol-2-yl)methyl)-2′-oxo-3,4-dihydro-1H-spiro[naphthalene-2,3′-pyrrolidine]-7-carboxamide]"
≤ 100,> 500,"O=C(NO)c1ccc2c(c1)C[C@]1(CCNC1=O)CC2 [Compound I-47, (S)—N-hydroxy-2′-oxo-3,4-dihydro-1H-spiro[naphthalene-2,3′-pyrrolidine]-7-carboxamide]"
≤ 100,> 500,"O=C(NO)c1ccc2c(c1)C[C@@]1(CCNC1=O)CC2 [Compound I-48, (R)—N-hydroxy-2′-oxo-3,4-dihydro-1H-spiro[naphthalene-2,3′-pyrrolidine]-7-carboxamide]"
≤ 100,> 500,"O=C(NO)c1ccc2c(c1)C[C@@]1(CC2)CCN(Cc2cnc(Cl)s2)C1=O [Compound I-49, (S)-1′-((2-chlorothiazol-5-yl)methyl)-N-hydroxy-2′-oxo-3,4-dihydro-1H-spiro[naphthalene-2,3′-pyrrolidine]-7-carboxamide]"
≤ 100,> 500,"O=C(NO)c1ccc2c(c1)C[C@@]1(CC2)CCN(Cc2cnc(O)s2)C1=O [Compound I-50, (S)—N-hydroxy-1′-((2-hydroxythiazol-5-yl)methyl)-2′-oxo-3,4-dihydro-1H-spiro[naphthalene-2,3′-pyrrolidine]-7-carboxamide]"
≤ 100,≤ 100,"CS(=O)(=O)c1ccc(CN2CC[C@]3(CCc4ccc(C(=O)NO)cc4C3)C2=O)cc1 [Compound I-51, (R)—N-hydroxy-1′-(4-(methylsulfonyl)benzyl)-2′-oxo-3,4-dihydro-1H-spiro[naphthalene-2,3′-pyrrolidine]-7-carboxamide]"
≤ 100,> 500,"CCCN1CC[C@@]2(CCc3ccc(C(=O)NO)cc3C2)C1=O [Compound I-52, (S)—N-hydroxy-2′-oxo-1′-propyl-3,4-dihydro-1H-spiro[naphthalene-2,3′-pyrrolidine]-7-carboxamide]"
≤ 100,> 500,"O=C(NO)c1ccc2c(c1)C[C@@]1(CC2)CCN(CC2CCC2)C1=O [Compound I-53, (S)-1′-(cyclobutylmethyl)-N-hydroxy-2′-oxo-3,4-dihydro-1H-spiro[naphthalene-2,3′-pyrrolidine]-7-carboxamide]"
≤ 100,> 500,"CC(C)CCN1CC[C@@]2(CCc3ccc(C(=O)NO)cc3C2)C1=O [Compound I-54, (S)—N-hydroxy-1′-isopentyl-2′-oxo-3,4-dihydro-1H-spiro[naphthalene-2,3′-pyrrolidine]-7-carboxamide]"
≤ 100,> 500,"CC#CCN1CC[C@@]2(CCc3ccc(C(=O)NO)cc3C2)C1=O [Compound I-55, (S)-1′-(but-2-yn-1-yl)-N-hydroxy-2′-oxo-3,4-dihydro-1H-spiro[naphthalene-2,3′-pyrrolidine]-7-carboxamide]"
